In one data set the test system is multiresistant HIV. The settings on record: patients, alovudine 7.5 mg qd add-on for four weeks. As for the experimental part:
A phase IIa trial was performed with 15 patients failing their current NRTI-containing regimens. Each patient had HIV RNA>1000 cp/ml, with at least 2 mutations in the viral RT induced by previous viral therapy, as established by genotypic assay.
The patents were administered qd 7.5 mg alovudine in a conventional carrier in addition to their current regimen for four weeks. The current regimes included various permutations of 3-5 HIV antivirals selected from 3TC, ddI, D4T, nevirapine, DMP, ritonavir, kaletra, saquinavir, amprenavir and indinavir, administered in their conventional dosage forms and regimens. Antiviral load evaluation was performed weekly and then four weeks after discontinuation of alovudine.
As this clinical trial was performed as an add-on therapy to the patients pre-existing regime, it will be appreciated that the alovudine qd was administered in a separate dosage form to the abacavir (typically bd) and other antvirals (typically administered […]).

In another data set the test system is HIV-1, IIIb. The data set can be described thus: microbe, parasite or virus in culture. Conditions: Human immunodeficiency virus 1, IIIB, MT4; alovudine alone at 0.003 uM, FIG. 3. In kind it is cell-based.

Molecules are shown by their SMILES.

Experimental for HIV-1, IIIb: The antiviral effects of MIV-310 in combination with other NRTIs on HIV-1 replication in MT4 cells were examined by the median effect method (Chao and Talalay 1983). The assay was performed in microtiter plates with each well containing 10^5 cells and 20-50 tissue culture infective doses of HIV-1, IIIb. Each drug alone and a mixture of the drugs in a constant ratio were serially diluted in 2-fold steps and added to the wells in quadruplicates. The constant ratio is selected to reflect the relative potency of the drugs. […] The anti-viral effect was measured day 5 using the XTT calorimetric method.
A combination index (CI) less than 1 indicates synergism, CI equal to zero indicates addition and a CI greater than 1 indicates antagonism. Once again, the combinations have been tested at molar ratios reflecting their relative ED50s in cell culture.

In the case of `Cc1cn([C@H]2C[C@H](F)[C@@H](CO)O2)c(=O)[nH]c1=O` [alovudine, 3′-deoxy-3′-fluorothymidine], in the data set on multiresistant HIV, the serious adverse events entry is on record as “no serious adverse events”, the tolerability result is listed as “generally well tolerated” and the “transient mean increase in CD4 counts” value was “+52 counts/mm^3”. Besides, 0.003 µM produced 27% inhibition in the data set on HIV-1, IIIb.

The values above are taken from US20060084627A1, “Synergistic interaction of abacavir and alovudine” (Medivir AB, priority 2002, published 2006).
